pIC50: −log10 of the molar value.
Tested on: ΔG/SEAP/HCV E1E2
Assay: Effect of test substance on cell infection with HCV pseudotype virus (SEAP reporter assay in HepG2 cells)
Assay type: cell-based
Conditions: Hepatitis C virus

SMILES	pIC50
Cc1cc(-c2cnco2)cc(-c2nn(-c3cc(N4CC[C@H](O)C4)ccc3C(F)(F)F)c(=O)c3c2CC(C)(C)C3)c1 [Example 6, 2-[5-((S)-3-hydroxy-pyrrolidin-1-yl)-2-trifluoromethyl-phenyl]-6,6-dimethyl-4-(3-methyl-5-oxazol-5-yl-phenyl)-2,5,6,7-tetrahydro-cyclopenta[d]pyridazin-1-one]	> 7.00
COc1cc(C)cc(-c2nn(-c3cc(N4CC[C@H](O)C4)ccc3C(F)(F)F)c(=O)c3c2CCC3)c1 [Example 7, 2-[5-((S)-3-hydroxy-pyrrolidin-1-yl)-2-trifluoromethyl-phenyl]-4-(3-methoxy-5-methyl-phenyl)-2,5,6,7-tetrahydro-cyclopenta[d]pyridazin-1-one]	> 7.00
Cc1cc(C)cc(-c2nn(-c3cc(-c4cccnn4)ccc3C(F)(F)F)c(=O)c3c2CCC3)c1 [Example 8, 4-(3,5-dimethyl-phenyl)-2-(5-pyridazin-3-yl-2-trifluoromethyl-phenyl)-2,5,6,7-tetrahydro-cyclopenta[d]pyridazin-1-one]	> 7.00
COc1cc(OC)cc(-c2nn(-c3cc(N4CC[C@H](O)C4)ccc3C(F)(F)F)c(=O)c3c2CCC3)c1 [Example 9, 4-(3,5-dimethoxy-phenyl)-2-[5-((S)-3-hydroxy-pyrrolidin-1-yl)-2-trifluoromethyl-phenyl]-2,5,6,7-tetrahydro-cyclopenta[d]pyridazin-1-one]	> 7.00
Cc1cc(C)cc(-c2nn(-c3cc(-c4cccnn4)ccc3C(F)(F)F)c(=O)c3c2CCN3)c1 [Example 10, 4-(3,5-dimethyl-phenyl)-6-(5-pyridazin-3-yl-2-trifluoromethyl-phenyl)-1,2,3,6-tetrahydro-pyrrolo[2,3-d]pyridazin-7-one]	> 7.00
Cc1cc(C)cc(-c2nn(-c3cc(N4CC[C@H](O)C4)ccc3C(F)(F)F)c(=O)c3c2CCN3)c1 [Example 11, 4-(3,5-dimethyl-phenyl)-6-[5-((S)-3-hydroxy-pyrrolidin-1-yl)-2-trifluoromethyl-phenyl]-1,2,3,6-tetrahydro-pyrrolo[2,3-d]pyridazin-7-one]	> 7.00
Cc1cc(C)cc(-c2nn(-c3cc(-c4cccnn4)ccc3C(F)(F)F)c(=O)c3c2CC(C)N3)c1 (stereo not shown) [Example 12, 4-(3,5-dimethyl-phenyl)-2-methyl-6-(5-pyridazin-3-yl-2-trifluoromethyl-phenyl)-1,2,3,6-tetrahydro-pyrrolo[2,3-d]pyridazin-7-one]	> 7.00
COc1cc(C)cc(-c2nn(-c3cc(-c4cccnn4)ccc3C(F)(F)F)c(=O)c3c2CCN3)c1 [Example 13, 4-(3-methoxy-5-methyl-phenyl)-6-(5-pyridazin-3-yl-2-trifluoromethyl-phenyl)-1,2,3,6-tetrahydro-pyrrolo[2,3-d]pyridazin-7-one]	> 7.00
COc1cc(C)cc(-c2nn(-c3cc(N4CC[C@H](O)C4)ccc3C(F)(F)F)c(=O)c3c2CCN3)c1 [Example 14, 6-[5-((S)-3-hydroxy-pyrrolidin-1-yl)-2-trifluoromethyl-phenyl]-4-(3-methoxy-5-methyl-phenyl)-1,2,3,6-tetrahydro-pyrrolo[2,3-d]pyridazin-7-one]	> 7.00
COc1cc(C)cc(-c2nn(-c3cc(-c4cccnn4)ccc3C(F)(F)F)c(=O)c3c2CC(C)N3)c1 (stereo not shown) [Example 15, 4-(3-methoxy-5-methyl-phenyl)-2-methyl-6-(5-pyridazin-3-yl-2-trifluoromethyl-phenyl)-1,2,3,6-tetrahydro-pyrrolo[2,3-d]pyridazin-7-one]	> 7.00
COc1cc(C)cc(-c2nn(-c3cc(N4CC[C@H](O)C4)ccc3C(F)(F)F)c(=O)c3c2CC(C)N3)c1 (stereo partly drawn) [Example 16, 6-[5-((S)-3-hydroxy-pyrrolidin-1-yl)-2-trifluoromethyl-phenyl]-4-(3-methoxy-5-methyl-phenyl)-2-methyl-1,2,3,6-tetrahydro-pyrrolo[2,3-d]pyridazin-7-one]	> 7.00
COc1cc(OC)cc(-c2nn(-c3cc(-c4cccnn4)ccc3C(F)(F)F)c(=O)c3c2CCN3)c1 [Example 17, 4-(3,5-dimethoxy-phenyl)-6-(5-pyridazin-3-yl-2-trifluoromethyl-phenyl)-1,2,3,6-tetrahydro-pyrrolo[2,3-d]pyridazin-7-one]	> 7.00
COc1cc(OC)cc(-c2nn(-c3cc(N4CCC(O)C4)ccc3C(F)(F)F)c(=O)c3c2CCN3)c1 (stereo not shown) [Example 18, 4-(3,5-dimethoxyphenyl)-6-[5-(3-hydroxy-pyrrolidin-1-yl)-2-trifluoromethyl-phenyl]-1,2,3,6-tetrahydro-pyrrolo[2,3-d]pyridazin-7-one]	> 7.00
COc1cc(OC)cc(-c2nn(-c3cc(-c4cccnn4)ccc3C(F)(F)F)c(=O)c3c2CC(C)N3)c1 (stereo not shown) [Example 19, 4-(3,5-dimethoxy-phenyl)-2-methyl-6-(5-pyridazin-3-yl-2-trifluoromethyl-phenyl)-1,2,3,6-tetrahydro-pyrrolo[2,3-d]pyridazin-7-one]	> 7.00
COc1cc(OC)cc(-c2nn(-c3cc(N4CC[C@H](O)C4)ccc3C(F)(F)F)c(=O)c3c2CC(C)N3)c1 (stereo partly drawn) [Example 20, 4-(3,5-dimethoxy-phenyl)-6-[5-((S)-3-hydroxy-pyrrolidin-1-yl)-2-trifluoromethyl-phenyl]-2-methyl-1,2,3,6-tetrahydro-pyrrolo[2,3-d]pyridazin-7-one]	> 7.00
COc1cc(OC)cc(-c2nn(-c3cc(N4CC[C@@H](O)C4)ccc3C(F)(F)F)c(=O)c3c2CCC3)c1 [Example 21, 4-(3,5-dimethoxy-phenyl)-2-[5-((R)-3-hydroxy-pyrrolidin-1-yl)-2-trifluoromethyl-phenyl]-2,5,6,7-tetrahydro-cyclopenta[d]pyridazin-1-one]	> 7.00
COc1cc(C)cc(-c2nn(-c3cc(N4CC[C@@H](O)C4)ccc3C(F)(F)F)c(=O)c3c2CCN3)c1 [Example 22, 6-[5-((R)-3-hydroxy-pyrrolidin-1-yl)-2-trifluoromethyl-phenyl]-4-(3-methoxy-5-methyl-phenyl)-1,2,3,6-tetrahydro-pyrrolo[2,3-d]pyridazin-7-one]	> 7.00
COc1cc(C)cc(-c2nn(-c3cc(N4CC[C@@H](O)C4)ccc3C(F)(F)F)c(=O)c3c2CCC3)c1 [Example 23, 2-[5-((R)-3-hydroxy-pyrrolidin-1-yl)-2-trifluoromethyl-phenyl]-4-(3-methoxy-5-methyl-phenyl)-2,5,6,7-tetrahydro-cyclopenta[d]pyridazin-1-one]	> 7.00
COc1cc(OC)cc(-c2nn(-c3cc(N4CC[C@@H](O)C4)ccc3C(F)(F)F)c(=O)c3c2CCN3)c1 [Example 24, 4-(3,5-dimethoxy-phenyl)-6-[5-((R)-3-hydroxy-pyrrolidin-1-yl)-2-trifluoromethyl-phenyl]-1,2,3,6-tetrahydro-pyrrolo[2,3-d]pyridazin-7-one]	> 7.00
COc1cc(OC)cc(-c2nn(-c3cc(N4CCC(=O)C4)ccc3C(F)(F)F)c(=O)c3c2CCN3)c1 [Example 25, 4-(3,5-dimethoxy-phenyl)-6-[5-(3-oxo-pyrrolidin-1-yl)-2-trifluoromethyl-phenyl]-1,2,3,6-tetrahydro-pyrrolo[2,3-d]pyridazin-7-one]	> 7.00
COC(=O)CN1CCc2c(-c3cc(OC)cc(OC)c3)nn(-c3cc(N4CC[C@H](O)C4)ccc3C(F)(F)F)c(=O)c21 [Example 26, {4-(3,5-dimethoxy-phenyl)-6-[5-((S)-3-hydroxy-pyrrolidin-1-yl)-2-trifluoromethyl-phenyl]-7-oxo-2,3,6,7-tetrahydro-pyrrolo[2,3-d]pyridazin-1-yl}-acetic acid methyl ester]	> 7.00
COc1cc(OC)cc(-c2nn(-c3cc(N4CC[C@H](O)C4)ccc3C(F)(F)F)c(=O)c3c2CCN3CC(=O)O)c1 [Example 27, {4-(3,5-dimethoxy-phenyl)-6-[5-((S)-3-hydroxy-pyrrolidin-1-yl)-2-trifluoromethyl-phenyl]-7-oxo-2,3,6,7-tetrahydro-pyrrolo[2,3-d]pyridazin-1-yl}-acetic acid]	> 7.00
COc1cc(OC)cc(-c2nn(-c3cc(N4CC[C@H](O)C4)ccc3C(F)(F)F)c(=O)c3c2CCN3CC(N)=O)c1 [Example 28, 2-{4-(3,5-dimethoxy-phenyl)-6-[5-((S)-3-hydroxy-pyrrolidin-1-yl)-2-trifluoromethyl-phenyl]-7-oxo-2,3,6,7-tetrahydro-pyrrolo[2,3-d]pyridazin-1-yl}-acetamide]	> 7.00
COc1cc(OC)cc(-c2nn(-c3cc(N4CC[C@H](O)C4)ccc3C(F)(F)F)c(=O)c3c2CCN3CCO)c1 [Example 29, 4-(3,5-dimethoxy-phenyl)-1-(2-hydroxy-ethyl)-6-[5-((S)-3-hydroxy-pyrrolidin-1-yl)-2-trifluoromethylphenyl]-1,2,3,6-tetrahydro-pyrrolo[2,3-d]pyridazin-7-one]	> 7.00
CCC(O)CN1CCc2c(-c3cc(OC)cc(OC)c3)nn(-c3cc(N4CC[C@H](O)C4)ccc3C(F)(F)F)c(=O)c21 (stereo partly drawn) [Example 30, 4-(3,5-dimethoxy-phenyl)-1-(2-hydroxy-butyl)-6-[5-((S)-3-hydroxy-pyrrolidin-1-yl)-2-trifluoromethylphenyl]-1,2,3,6-tetrahydro-pyrrolo[2,3-d]pyridazin-7-one]	> 7.00
CNC(=O)CN1CCc2c(-c3cc(OC)cc(OC)c3)nn(-c3cc(N4CC[C@H](O)C4)ccc3C(F)(F)F)c(=O)c21 [Example 31, 2-{4-(3,5-dimethoxy-phenyl)-6-[5-((S)-3-hydroxy-pyrrolidin-1-yl)-2-trifluoromethyl-phenyl]-7-oxo-2,3,6,7-tetrahydro-pyrrolo[2,3-d]pyridazin-1-yl}-N-methyl-acetamide]	> 7.00
COc1cc(OC)cc(-c2nn(-c3ccccc3C(F)(F)F)c(=O)c3c2CCN3)c1 [Example 32, 4-(3,5-dimethoxy-phenyl)-6-(2-trifluoromethylphenyl)-1,2,3,6-tetrahydro-pyrrolo[2,3-d]pyridazin-7-one]	5.00 to 7.00
CCNC(=O)CN1CCc2c(-c3cc(OC)cc(OC)c3)nn(-c3cc(N4CC[C@H](O)C4)ccc3C(F)(F)F)c(=O)c21 [Example 33, 2-{4-(3,5-dimethoxy-phenyl)-6-[5-((S)-3-hydroxy-pyrrolidin-1-yl)-2-trifluoromethyl-phenyl]-7-oxo-2,3,6,7-tetrahydro-pyrrolo[2,3-d]pyridazin-1-yl}-N-ethyl-acetamide]	> 7.00

Source: patent EP1953147A1, “HETEROCYCLIC COMPOUND AND MEDICINAL APPLICATION THEREOF” (priority 2005, dated 2007)
